Patent publication US7408065B2, “P2X7 receptor antagonists and their use” (AstraZeneca AB, priority 2003, dated 2008)

| Compound | melting point |
| --- | --- |
| N[C@H]1CCN(c2ccc3c(C(=O)NCC4CCCCC4)cccc3n2)C1 [Example 54, 2-[(3S)-3-Amino-1-pyrrolidinyl]-N-(cyclohexylmethyl)-5-quinolinecarboxamide] | 127 to 128 °C |
| N[C@H]1CCCN(c2ccc3c(NC(=O)CC4CCCCC4)c(Cl)ccc3n2)C1 [Example 60, N-[2-[(3S)-3-Amino-1-piperidinyl]-6-chloro-5-quinolinyl]-cyclohexaneacetamide] | 173 to 176 °C |
| O=C(CCC1CCCC1)Nc1c(Cl)ccc2nc(N3CC[C@H](NCCO)C3)ccc12 [Example 63, N-[6-Chloro-2-[(3S)-3-[(2-hydroxyethyl)amino]-1-pyrrolidinyl]-5-quinolinyl]-cyclopentanepropanamide] | 186 to 188 °C |
| O=C(CC1CCCCC1)Nc1c(Cl)ccc2nc(N3CCC(n4cn[nH]c4=O)CC3)ccc12 [Example 64, N-[6-Chloro-2-[4-(1,5-dihydro-5-oxo-4H-1,2,4-triazol-4-yl)-1-piperidinyl]-5-quinolinyl]-cyclohexaneacetamide] | 310 to 313 °C |
| O=C(O)CCCc1ccc2c(NC(=O)CC3CCCCC3)c(Cl)ccc2n1 [Example 67, 6-Chloro-5-[(cyclohexylacetyl)amino]-2-quinolinebutanoic Acid] | 216 to 220 °C |
| O=C(O)CC1CCN(c2ccc3c(NC(=O)CC4CCCCC4)c(Cl)ccc3n2)CC1 [Example 68, 1-[6-Chloro-5-[(cyclohexylacetyl)amino]-2-quinolinyl]-4-piperidineacetic Acid] | 242 to 244 °C |
| O=C(NCCC1CCCCC1)c1c(Cl)ccc2nc(N3CCC(C(=O)O)CC3)ccc12 [Example 76, 1-[6-Chloro-5-[[(2-cyclohexylethyl)amino]carbonyl]-2-quinolinyl]-4-piperidinecarboxylic Acid] | 253 to 256 °C |
| O=C(CC1CCCCC1)Nc1c(Cl)ccc2nc(N3CCCC(NCCO)C3)ccc12 (stereo not drawn) [Example 80, N-[6-Chloro-2-[3-[(2-hydroxyethyl)amino]-1-piperidinyl]-5-quinolinyl]-cyclohexaneacetamide] | 185 to 186 °C |
| CNC1CCCN(c2ccc3c(NC(=O)CC4CCCCC4)c(Cl)ccc3n2)C1 (stereo not drawn) [Example 82, N-[6-Chloro-2-[3-(methylamino)-1-piperidinyl]-5-quinolinyl]-cyclohexaneacetamide] | 158 to 159 °C |
| O=C(O)CN[C@H]1CCN(c2ccc3c(NC(=O)CC4CCCCC4)c(Cl)ccc3n2)C1 [Example 85, N-[(3S)-1-[6-Chloro-5-[(cyclohexylacetyl)amino]-2-quinolinyl]-3-pyrrolidinyl]-glycine] | 257 to 259 °C |
| Cc1ccc2nc(N3CC[C@H](NCCO)C3)ccc2c1NC(=O)CC1CCCCC1 [Example 86, N-[2-[(3S)-3-[(2-Hydroxyethyl)amino]-1-pyrrolidinyl]-6-methyl-5-quinolinyl]-cyclohexaneacetamide] | 204 to 207 °C |
| CS(=O)(=O)NC(=O)N[C@H]1CCN(c2ccc3c(NC(=O)CC4CCCCC4)c(Cl)ccc3n2)C1 [Example 89, N-[6-Chloro-2-[(3S)-3-[[[(methylsulfonyl)amino]carbonyl]amino]-1-pyrrolidinyl]-5-quinolinyl]-cyclohexaneacetamide] | 303 to 307 °C |
| O=C(CC1CCCCC1)Nc1c(Cl)ccc2nc(CCCCc3nnn[nH]3)ccc12 [Example 105, N-[6-Chloro-2-[4-(1H-tetrazol-5-yl)butyl]-5-quinolinyl]-cyclohexaneacetamide] | 192 to 195 °C |

Now from value to molecule:

| melting point | Compound |
| --- | --- |
| 150 to 151 °C | O=C(NCC1CCCCC1)c1c(Cl)ccc2nc(N3CC(NCCO)C3)ccc12 [Example 55, 6-Chloro-N-(cyclohexylmethyl)-2-[3-[(2-hydroxyethyl)amino]-1-azetidinyl]-5-quinolinecarboxamide] |
| 115 to 120 °C | CC(C)(C)OC(=O)N(CCO)[C@H]1CCN(c2ccc3c(NC(=O)CC4CCCCC4)c(Cl)ccc3n2)C1 [Example 56, [1-[6-Chlor-5-[(cyclohexylacetyl)amino]-2-quinolinyl]-3-pyrrolidinyl](2-hydroxyethyl)-carbamic Acid 1,1-dimethylethyl Ester] |
| 165 °C | Cc1ccc2ncccc2c1C(=O)NCC1CCCCC1 [Example 57, N-(Cyclohexylmethyl)-6-methyl-5-quinolinecarboxamide] |
| 160 °C (dec.) | N[C@H]1CCN(Cc2ccc3c(NC(=O)CC4CCCCC4)c(Cl)ccc3n2)C1 [Example 59, N-[2-[[(3S)-3-Amino-1-pyrrolidinyl]methyl]-6-chloro-5-quinolinyl]-cyclohexaneacetamide] |
| 182 to 183 °C | O=C(CC1CCCCC1)Nc1c(Cl)ccc2nc(N3CCC[C@H](NCCO)C3)ccc12 [Example 61, N-[6-Chloro-2-[(3S)-3-[(2-hydroxyethyl)amino]-1-piperidinyl]-5-quinolinyl]-cyclohexaneacetamide] |
| 192 to 194 °C | N[C@H]1CCN(c2ccc3c(NC(=O)CCC4CCCC4)c(Cl)ccc3n2)C1 [Example 62, N-[2-[(3S)-3-Amin-1-pyrrolidinyl]-6-chloro-5-quinlinyl]-cyclopentanepropanamide] |
| 199 to 201 °C | O=C(O)CCCCc1ccc2c(NC(=O)CC3CCCCC3)c(Cl)ccc2n1 [Example 70, 6-Chloro-5-[(cyclohexylacetyl)amino]-2-quinolinepentanoic Acid] |
| 157 to 160 °C | O=C(NCC1CCCCC1)c1c(Cl)ccc2nc(N3CCC[C@@H]3C(=O)O)ccc12 [Example 71, 1-[6-Chloro-5-[[(cyclohexylmethyl)amino]carbonyl]-2-quinolinyl]-D-proline] |
| 210 to 212 °C | CC1(CC(=O)Nc2c(Cl)ccc3nc(N4CCC(C(=O)O)CC4)ccc23)CCCCC1 [Example 79, 1-[6-Chloro-5-[[(1-methylcyclohexyl)acetyl]amino]-2-quinolinyl]-4-piperidinecarboxylic Acid] |
| 157 to 158 °C | O=C(CC1CCCCC1)Nc1c(Cl)ccc2nc(N3CCCC3CNCCO)ccc12 (stereo not drawn) [Example 81, N-[6-Chloro-2-[2-[[(2-hydroxyethyl)amino]methyl]-1-pyrrolidinyl]-5-quinolinyl]-cyclohexaneacetamide] |
| 138 to 145 °C | CNCC1CCCN1c1ccc2c(NC(=O)CC3CCCCC3)c(Cl)ccc2n1 (stereo not drawn) [Example 83, N-[6-Chloro-2-[2-[(methylamino)methyl]-1-pyrrolidinyl]-5-quinolinyl]-cyclohexaneacetamide] |
| 178 to 200 °C | O=C(CC1CCCCC1)Nc1c(Cl)ccc2nc(N3CC[C@H](NS(=O)(=O)C(F)(F)F)C3)ccc12 [Example 88, N-[6-Chloro-2-[(3S)-3-[[(trifluoromethyl)sulfonyl]amino]-1-pyrrolidinyl]-5-quinolinyl]-cyclohexaneacetamide] |
| 220 to 221 °C | O=C(CC1CCCCC1)Nc1c(Cl)ccc2nc(N3CC[C@H](NCCc4nnn[nH]4)C3)ccc12 [Example 101, N-[6-Chloro-2-[(3S)-3-[[2-(2H-tetrazol-5-yl)ethyl]amino]-1-pyrrolidinyl]-5-quinolinyl]-cyclohexaneacetamide] |
| 275 °C | O=C(CC1CCCCC1)Nc1c(Cl)ccc2nc(N3CCC(c4nsc(=O)[nH]4)CC3)ccc12 [Example 103, N-[6-Chloro-2-[4-(4,5-dihydro-5-oxo-1,2,4-thiadiazol-3-yl)-1-piperidinyl]-5-quinolinyl]-cyclohexaneacetamide] |
